Test results as given in patent US11028087B2, “2,6-disubstituted-9-cyclopentyl-9H-purines, use thereof as medicaments, and pharmaceutical compositions” (UNIVERZITA PALACKEHO V OLOMOUCI, priority 2017, dated 2021).
Like-named read-outs stand apart in the source and are kept apart here.

Legend:
[1] = tested on: EOL-1 (eosinophilic leukaemia, carrying the fusion FIP1L1-PDGFRA); test: Calcein AM cytotoxicity assay; assay type: cell-based; conditions: Homo sapiens, EOL1, 72 h; EOL-1; Calcein AM, three days; read-out: EC50 values (μM) EOL-1
Outline: (§1)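 Viable cells were quantified by fluorescence of calcein, produced by intracellular esterases from Calcein AM (1 μg/ml final, 1 h), following three days of treatment with compounds in triplicate.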

K562 = test: Calcein AM cytotoxicity assay; assay type: cell-based; conditions: Homo sapiens, 72 h; K562; Calcein AM, three days; read-out: EC50 values (μM) K562
Outline: as §1

MCF-7 = test: Calcein AM cytotoxicity assay; assay type: cell-based; conditions: Homo sapiens, MCF7, 72 h; MCF-7; Calcein AM, three days; read-out: EC50 values (μM) MCF-7
Outline: as §1

[2] = tested on: MOLM-13 (acute myeloid leukemia, FLT3-ITD positive); test: Calcein AM cytotoxicity assay; assay type: cell-based; conditions: Homo sapiens, 72 h; MOLM-13; Calcein AM, three days; read-out: EC50 values (μM) MOLM-13
Outline: as §1

[3] = tested on: MV4-11 (acute myeloid leukemia, FLT3-ITD positive); test: Calcein AM cytotoxicity assay; assay type: cell-based; conditions: Homo sapiens, 72 h; MV4-11; Calcein AM, three days after drug addition; read-out: EC50 values (μM) MV4-11
Outline: as §1

[4] = tested on: THP-1 (acute myeloid leukemia, wt FLT3); test: Calcein AM cytotoxicity assay; assay type: cell-based; conditions: Homo sapiens, 72 h; THP-1; Calcein AM, three days; read-out: EC50 values (μM) THP-1
Outline: as §1

[5] = tested on: U937 (monocytic leukemia, wt FLT3); test: Calcein AM cytotoxicity assay; assay type: cell-based; conditions: Homo sapiens, U-937, 72 h; U937; Calcein AM, three days; read-out: EC50 values (μM) U937
Outline: as §1

FLT3-ITD = target: T1, FLT3-ITD (Homo sapiens, UniProt P36888); test: Kinase inhibition assay with [γ-33P]ATP; assay type: biochemical
T1 sequence (P36888 1-993): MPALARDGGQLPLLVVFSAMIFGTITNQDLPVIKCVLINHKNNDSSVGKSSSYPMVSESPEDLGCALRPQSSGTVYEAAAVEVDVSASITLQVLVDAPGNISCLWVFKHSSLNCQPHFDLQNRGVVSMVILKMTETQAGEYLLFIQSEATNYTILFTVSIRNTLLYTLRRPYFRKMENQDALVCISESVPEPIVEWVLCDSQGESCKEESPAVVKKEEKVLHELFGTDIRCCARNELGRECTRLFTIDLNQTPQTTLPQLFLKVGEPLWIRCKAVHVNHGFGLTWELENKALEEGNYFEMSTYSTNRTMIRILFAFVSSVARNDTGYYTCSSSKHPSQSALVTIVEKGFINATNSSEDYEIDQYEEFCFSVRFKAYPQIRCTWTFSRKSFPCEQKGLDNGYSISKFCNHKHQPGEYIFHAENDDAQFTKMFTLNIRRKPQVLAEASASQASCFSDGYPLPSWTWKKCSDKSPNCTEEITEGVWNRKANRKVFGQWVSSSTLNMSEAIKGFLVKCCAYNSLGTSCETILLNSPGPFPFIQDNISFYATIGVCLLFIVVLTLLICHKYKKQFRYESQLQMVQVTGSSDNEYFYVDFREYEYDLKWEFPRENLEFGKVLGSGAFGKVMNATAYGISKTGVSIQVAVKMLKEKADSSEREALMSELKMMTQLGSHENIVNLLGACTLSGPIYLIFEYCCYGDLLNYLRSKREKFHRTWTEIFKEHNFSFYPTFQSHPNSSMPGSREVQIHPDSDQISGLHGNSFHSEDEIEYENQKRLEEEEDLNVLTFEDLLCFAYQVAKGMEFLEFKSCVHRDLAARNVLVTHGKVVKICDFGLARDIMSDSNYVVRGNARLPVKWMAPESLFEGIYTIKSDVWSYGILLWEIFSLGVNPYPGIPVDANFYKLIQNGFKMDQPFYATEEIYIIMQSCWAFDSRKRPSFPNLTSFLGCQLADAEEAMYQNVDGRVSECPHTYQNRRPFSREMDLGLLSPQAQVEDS
Outline: (§2)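 Radiometric [γ-33P]ATP assay in HEPES pH 7.5 with Mg2+/Mn2+: CDK1/Cyclin B (Sf9-expressed) and purchased CDK5/p35 with 1 mg/mL histone H1 at 15 and 0.15 μM ATP respectively; FLT3 WT and FLT3-ITD with AGLT substrate at 1 μM ATP. Reactions stopped with H3PO4, spotted onto phosphocellulose and washed.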

CDK5/p35 = target: T2, CDK5/p35 (Homo sapiens, UniProt Q00535); test: Kinase inhibition assay with [γ-33P]ATP; assay type: biochemical; conditions: histone H1, 0.15 μM ATP
T2 construct: purchased ProQinase GmbH
Outline: as §2

[6] = AGLT substrate, 1 μM ATP, read-out: IC50 values (μM) FLT3 ITD

T2 sequence (Q00535 whole entry): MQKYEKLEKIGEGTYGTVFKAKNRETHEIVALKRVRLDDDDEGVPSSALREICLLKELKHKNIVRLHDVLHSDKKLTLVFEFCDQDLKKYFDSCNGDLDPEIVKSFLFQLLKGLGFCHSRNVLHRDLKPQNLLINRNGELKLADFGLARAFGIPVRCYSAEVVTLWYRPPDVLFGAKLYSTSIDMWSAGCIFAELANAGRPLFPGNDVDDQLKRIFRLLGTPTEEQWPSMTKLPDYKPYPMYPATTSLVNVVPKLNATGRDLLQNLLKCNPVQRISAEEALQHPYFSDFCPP
T2 sequence (Q15078 whole entry partner): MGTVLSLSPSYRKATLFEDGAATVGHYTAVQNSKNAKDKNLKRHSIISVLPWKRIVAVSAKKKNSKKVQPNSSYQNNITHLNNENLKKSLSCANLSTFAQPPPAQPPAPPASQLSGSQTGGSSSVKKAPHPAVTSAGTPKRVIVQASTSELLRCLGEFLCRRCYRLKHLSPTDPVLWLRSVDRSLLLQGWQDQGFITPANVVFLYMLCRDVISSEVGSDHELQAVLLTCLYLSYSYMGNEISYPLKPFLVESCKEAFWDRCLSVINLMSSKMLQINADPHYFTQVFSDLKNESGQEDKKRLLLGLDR

NC1CCC(Nc2nc(Nc3ccc(N4CCOCC4)cc3)c3ncn(C4CCCC4)c3n2)CC1 (centres unmarked) [Compound 1]
EC50 [1]: 0.008 µM | EC50 (K562): 1.19 µM | EC50 (MCF-7): 0.32 µM | EC50 [2]: 0.004 µM | EC50 [3]: 0.001 µM | EC50 [4]: 1.01 µM | EC50 [5]: 2.13 µM | IC50 (FLT3-ITD; [6]): 0.002 µM

NC1CCC(Nc2nc(Nc3ccc(CN4CCNCC4)cc3)c3ncn(C4CCCC4)c3n2)CC1 (centres unmarked) [Compound 2]
EC50 [1]: 0.023 µM | EC50 (K562): 1.57 µM | EC50 (MCF-7): 0.52 µM | EC50 [2]: 0.015 µM | EC50 [3]: 0.01 µM | EC50 [4]: 2.28 µM | EC50 [5]: 1.8 µM | IC50 (CDK5/p35): 0.065 µM | IC50 (FLT3-ITD; [6]): 0.004 µM

CN1CCN(C(=O)c2ccc(Nc3nc(NC4CCC(N)CC4)nc4c3ncn4C3CCCC3)cc2)CC1 (centres unmarked) [Compound 3]
EC50 [1]: 0.015 µM | EC50 (K562): 1.23 µM | EC50 (MCF-7): 0.273 µM | EC50 [2]: 0.02 µM | EC50 [3]: 0.018 µM | EC50 [4]: 3.02 µM | EC50 [5]: 3.66 µM | IC50 (CDK5/p35): 0.058 µM | IC50 (FLT3-ITD; [6]): 0.007 µM

CN1CC2(C1)CN(c1ccc(Nc3nc(NC4CCC(O)CC4)nc4c3ncn4C3CCCC3)cc1)C2 (centres unmarked) [Compound 7]
IC50 (CDK5/p35): 0.03 µM | IC50 (FLT3-ITD; [6]): 0.005 µM

NCCNc1nc(Nc2ccc(CN3CCNCC3)cc2)c2ncn(C3CCCC3)c2n1 [Compound 14]
EC50 [1]: 0.054 µM | EC50 (K562): 1.56 µM | EC50 (MCF-7): 1.52 µM | EC50 [2]: 0.025 µM | EC50 [3]: 0.083 µM | EC50 [4]: 1.86 µM | EC50 [5]: 1.45 µM | IC50 (CDK5/p35): 0.065 µM | IC50 (FLT3-ITD; [6]): 0.004 µM

CN1CCN(C(=O)c2ccc(Nc3nc(NCCCCN)nc4c3ncn4C3CCCC3)cc2)CC1 [Compound 27]
EC50 [1]: 0.053 µM | EC50 (K562): 0.57 µM | EC50 (MCF-7): 0.265 µM | EC50 [2]: 0.019 µM | EC50 [3]: 0.024 µM | EC50 [4]: 0.624 µM | EC50 [5]: 0.794 µM | IC50 (FLT3-ITD; [6]): 0.002 µM

NCCCCNc1nc(Nc2ccc(N3CC4(COC4)C3)nc2)c2ncn(C3CCCC3)c2n1 [Compound 28]
EC50 [1]: 0.013 µM | EC50 (K562): 1.05 µM | EC50 (MCF-7): 0.925 µM | EC50 [2]: 0.004 µM | EC50 [3]: 0.001 µM | EC50 [4]: 0.514 µM | EC50 [5]: 0.605 µM | IC50 (FLT3-ITD; [6]): 0.003 µM

CN(C)CCNc1nc(Nc2ccc(CN3CCOCC3)nc2)c2ncn(C3CCCC3)c2n1 [Compound 172]
EC50 [1]: 0.014 µM | EC50 (K562): 1.16 µM | EC50 (MCF-7): 0.43 µM | EC50 [2]: 0.017 µM | EC50 [3]: 0.003 µM | EC50 [4]: 1.52 µM | EC50 [5]: 1.48 µM | IC50 (FLT3-ITD; [6]): 0.003 µM

CN(C)CCCNc1nc(Nc2ccc(C(=O)N3CCOCC3)nc2)c2ncn(C3CCCC3)c2n1 [Compound 179]
EC50 [1]: 0.225 µM | EC50 (MCF-7): 2.21 µM | EC50 [2]: 0.078 µM | EC50 [3]: 0.013 µM | EC50 [4]: > 4 µM | IC50 (FLT3-ITD; [6]): 0.012 µM

NC1CCC(Nc2nc(Nc3ccc(N4CCCC4)cc3)c3ncn(C4CCCC4)c3n2)CC1 (centres unmarked) [Compound 263]
EC50 [1]: 0.03 µM | EC50 (K562): 1.27 µM | EC50 (MCF-7): 1.33 µM | EC50 [2]: 0.024 µM | EC50 [3]: 0.018 µM | EC50 [4]: 3.11 µM | EC50 [5]: 3.17 µM | IC50 (CDK5/p35): 0.359 µM | IC50 (FLT3-ITD; [6]): 0.003 µM

NC1CCC(Nc2nc(Nc3ccc(CN4CCOCC4)cc3)c3ncn(C4CCCC4)c3n2)CC1 (centres unmarked) [Compound 264]
IC50 (CDK5/p35): 0.034 µM | IC50 (FLT3-ITD; [6]): 0.001 µM | IC50 (FLT3-ITD; comparative example, read-out: Influence of compounds on protein kinase inhibition, IC50 values (μM) FLT3 ITD): 0.001 µM

NCCCCNc1nc(Nc2ccc(N3CCOCC3)cc2)c2ncn(C3CCCC3)c2n1 [Compound 265]
EC50 [1]: 0.039 µM | EC50 (K562): 3.74 µM | EC50 (MCF-7): 3.25 µM | EC50 [2]: 0.016 µM | EC50 [3]: 0.017 µM | EC50 [4]: > 4 µM | EC50 [5]: > 4 µM | IC50 (FLT3-ITD; [6]): 0.004 µM

CCN1CCN(c2ccc(Nc3nc(NCCCCN)nc4c3ncn4C3CCCC3)cc2)CC1 [Compound 266]
EC50 [1]: 0.074 µM | EC50 (K562): 1.43 µM | EC50 (MCF-7): 2.15 µM | EC50 [2]: 0.014 µM | EC50 [3]: 0.018 µM | EC50 [4]: 2.99 µM | EC50 [5]: 3.77 µM | IC50 (FLT3-ITD; [6]): 0.002 µM

NCCCCNc1nc(Nc2ccc(CN3CCOCC3)cc2)c2ncn(C3CCCC3)c2n1 [Compound 270]
EC50 (K562): 1.81 µM | EC50 (MCF-7): 2.1 µM | EC50 [2]: 0.014 µM | EC50 [3]: 0.029 µM | EC50 [4]: 1.24 µM | EC50 [5]: > 4 µM | IC50 (FLT3-ITD; [6]): 0.002 µM

NC1CCC(Nc2nc(Nc3ccc(N4CC5(COC5)C4)cc3)c3ncn(C4CCCC4)c3n2)CC1 (centres unmarked) [Compound 272]
EC50 [1]: 0.022 µM | EC50 (K562): 1.18 µM | EC50 (MCF-7): 1.05 µM | EC50 [2]: 0.004 µM | EC50 [3]: 0.003 µM | EC50 [4]: 0.693 µM | EC50 [5]: 0.638 µM | IC50 (CDK5/p35): 0.059 µM
